Test results: the supplement of paper PMC10307832

Tests used:
Experiment in all cases: relative viability (nuclei count vs DMSO), 5 days (fraction); higher = more cells survive
QS11 = compound: C1CC2=C(C1)C=C(C=C2)OC3=NC(=C4C(=N3)N(C=N4)CC5=CC=C(C=C5)C6=CC=CC=C6)N[C@@H](CC7=CC=CC=C7)CO [QS11]
Method in brief: (§1)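 Acceptance criteria were a control CV below 25% and at least one doubling per plate. Lung cancer cell lines in 1536-well plates got five library-drug doses (not always all listed) √10 apart by pinning and were left 5 days with no medium change. Viability divides treated-well nuclei by vehicle-well nuclei and is the median across plates. Nuclei were counted by MetaXpress from 4× Hoechst images.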

AZ628 = compound: CC1=C(C=C(C=C1)NC(=O)C2=CC(=CC=C2)C(C)(C)C#N)NC3=CC4=C(C=C3)N=CN(C4=O)C [AZ628]
Method in brief: as §1

Darinaparsin = compound: C[As](C)SC[C@H](NC(=O)CC[C@H](N)C(=O)O)C(=O)NCC(=O)O [Darinaparsin]
Method in brief: as §1

QS11 + Alpelisib = compound: C1CC2=C(C1)C=C(C=C2)OC3=NC(=C4C(=N3)N(C=N4)CC5=CC=C(C=C5)C6=CC=CC=C6)N[C@@H](CC7=CC=CC=C7)CO [QS11] + Cc1nc(NC(=O)N2CCC[C@H]2C(N)=O)sc1-c1ccnc(C(C)(C)C(F)(F)F)c1 [Alpelisib] (partner 2 µM)
Method in brief: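 Lung cancer cell lines were seeded in 1536-well plates and dosed by pin tool the next day, with either a single drug or a fixed anchor-drug dose combined with five library-drug doses (not always all listed) spaced in √10 steps. Five days later, one step fixed the cells and stained their nuclei (final 0.05% Triton X-100, 1% formaldehyde, 1 ug/ml Hoechst), and nuclei were counted on 4× images. Relative viability is the nuclei count in treated wells divided by the count in vehicle wells, and each value is the median of duplicate plates.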

| Cell Line | relative viability (QS11; 0.08 µM) | relative viability (QS11; 0.253 µM) | relative viability (QS11; 0.8 µM) | relative viability (QS11; 2.53 µM) | relative viability (QS11; 8 µM) | relative viability (AZ628; 0.08 µM) | relative viability (AZ628; 0.253 µM) | relative viability (AZ628; 0.8 µM) | relative viability (AZ628; 2.53 µM) | relative viability (AZ628; 8 µM) | relative viability (Darinaparsin; 0.08 µM) | relative viability (Darinaparsin; 0.8 µM) | relative viability (Darinaparsin; 2.53 µM) | relative viability (Darinaparsin; 8 µM) | relative viability (QS11 + Alpelisib; first compound 0.08 µM) | relative viability (QS11 + Alpelisib; first compound 0.253 µM) | relative viability (QS11 + Alpelisib; first compound 2.53 µM) | relative viability (QS11 + Alpelisib; first compound 8 µM) | relative viability (QS11 + Alpelisib; first compound 0.8 µM) |
| --- | --- | --- | --- | --- | --- | --- | --- | --- | --- | --- | --- | --- | --- | --- | --- | --- | --- | --- | --- |
| LOU-NH91 | 0.979 | 0.93 | 0.78 | 0.98 | 0.966 | 0.971 | 0.926 | 0.958 | 0.963 | 0.797 | 1.03 | 0.921 | 0.954 | 1.02 | 0.687 | 0.636 | 0.691 | 0.697 | – |
| 201T | 0.994 | 0.909 | 0.819 | 0.895 | 0.828 | 1.03 | 0.997 | 1.07 | 1.06 | 1.04 | 0.996 | 0.998 | 0.947 | 0.986 | 1.02 | 1.07 | 1.08 | 0.949 | 0.92 |
| UMC-11 | 0.952 | 0.979 | 0.992 | 1.17 | 1.22 | 1.07 | 0.974 | 0.992 | 0.943 | 1.08 | 0.997 | 0.949 | 0.926 | 1.03 | 0.939 | 1.15 | 1.08 | 1.02 | 1.01 |
| NCI-H1975 | 0.954 | 0.881 | 1.04 | 1.23 | 1.34 | 0.927 | 0.85 | 0.889 | 0.94 | 0.768 | 0.992 | 1.01 | 0.906 | 1.05 | 0.654 | 0.727 | 0.887 | 0.9 | 0.747 |
| NCI-H1395 | 0.833 | 0.976 | 1 | 0.881 | 0.986 | 1.02 | 0.794 | 0.92 | 0.92 | 0.832 | 0.995 | 0.883 | 0.815 | 0.938 | – | 1.2 | 0.912 | 1.53 | 1.12 |
| SW 1573 | 1.04 | 0.961 | 1.01 | 0.896 | 0.655 | 0.984 | 0.863 | 0.696 | 0.812 | 0.564 | 1.21 | 0.971 | 0.966 | 1.19 | 0.844 | 0.656 | 0.741 | 0.718 | 0.772 |
| NCI-H1792 | 0.738 | 0.903 | 0.827 | 0.823 | 0.669 | 1.11 | 0.833 | 0.766 | 0.746 | 0.456 | 0.929 | 1.01 | – | 1.28 | – | 0.708 | 0.609 | 0.785 | 0.539 |
| NCI-H441 | 0.978 | 1.04 | 0.92 | 0.985 | 0.855 | 0.932 | 1.02 | 0.988 | 1.06 | 0.787 | 1.49 | 1.14 | 0.991 | 1.26 | 0.785 | 0.843 | 0.794 | 0.706 | 0.784 |
| IA-LM | 1 | 1.1 | 0.576 | 0.902 | 0.996 | 1.15 | 0.871 | 0.589 | 0.607 | 0.266 | 1.16 | 1.05 | 1.16 | 1.12 | 0.665 | 0.747 | 0.826 | 0.473 | 0.378 |
| HCC-366 | 1.01 | 1.01 | – | 0.98 | 0.447 | 1.01 | 0.952 | 0.884 | 0.955 | 0.876 | 1.01 | 1.07 | 1.03 | 1.32 | 0.55 | 0.361 | 0.296 | 0.244 | – |
| NCI-H1915 | 0.993 | 1.04 | – | 0.872 | 0.871 | 0.994 | 0.939 | 0.796 | 0.731 | 0.464 | 1.04 | 0.964 | 0.965 | 1.1 | 1.06 | 1.16 | 1.06 | 0.999 | – |
